Literature values as cited in patent US20260232560A1, “SKIN HEALTH BENEFITTING COMPOSITIONS” (priority 2023, published 2026).

Experiments:
[1] = background statement
[2] = poor solubility and permeability

SMILES | antioxidant power relative to grape seed extract [1] | BCS class [2]
CCCC\C=C/C=C/C=C\CCCCCCCC(=O)O [Punicic acid] | approximately 10 times | 
O=c1oc2c(O)c(O)cc3c(=O)oc4c(O)c(O)cc1c4c23 [Ellagic acid] |  | BCS Class IV
